Laboratory results as given in patent US20090104154A1, “Composition and method for killing of tumours” (COMMONWEALTH SCIENTIFIC AND INDUSTRIAL RESEARCH ORGANISATION, priority 2002, published 2009).

Experiments:
[1] = cited from earlier work
PC3 tumours = experiment: GDEPT on subcutaneous human PC3 tumours in nude mice; format: in vivo, mouse
Description: The ability of the PNP-based GDEPT system to suppress tumour growth in vivo was tested using subcutaneous human PC3 tumours grown in nude mice. Once the tumours were established (see example 1), on day 0 two groups of mice received one intratumoural injection of 1×10^10 VP of OAdV220. Two further groups received virus storage buffer only. Following this treatment all animals in one of the virus groups and all animals in one of the no-virus groups received a daily intraperitoneal (ip) injection of fludarabine (75 mg/m^2/day) for the next five days. Animal weights and tumour volumes were recorded twice weekly. The vector only group was compared to the nil virus, nil prodrug group. The group that received vector plus fludarabine was compared with the group that received fludarabine only. The OAdV220 vector alone caused a 30% reduction in tumour growth. However, the overall tumour growth suppression was increased to 71% when virus was used in conjunction with Fludarabine.
The cut off for response was arbitrarily taken as a tumour volume of 600 mm^3, half the maximum tumour volume (1200 mm^3) allowed before mice had to be culled because of tumour burden. By day 25, 13 of 14 tumours treated with OAdV220 plus fludarabine were in the responder category compared with 6 of 9 that received fludarabine only, and 9 of 12 which received virus only. […]

RM-1 tumours = experiment: GDEPT on subcutaneous tumours from RM-1 cells pre-transduced in vitro; format: in vivo, mouse; conditions: day 15; Fludarabine alone 600 mg/m^2/day compared with nil treatment
Description: RM-1 cells (3×10^7) were transduced in culture with 1×10^3 or 1×10^2 VP/cell of OAdV220 or mock transduced with virus dilution buffer on day −1. On day 0, 12 mice/group were subcutaneously injected with 2.5×10^5 virus- or mock-transduced cells. Fludarabine was then administered from days 1-5 at 600 mg/m^2/day. Tumour volume and animal survival were monitored three times per week. A line of best fit was generated for each treatment curve and the ability to suppress tumour growth or increase animal survival was determined from the days taken to reach the midpoint of tumour growth or animal survival respectively.

[2] = tested on: intraprostatic RM-1 tumours; experiment: GDEPT ± lipid on intraprostatic RM-1 tumours; format: in vivo, mouse; conditions: day 18; relative to the equivalent non-fludarabine treated tumours; fludarabine 600 mg/m^2/day ip
Description: In order to mimic clinical prostate cancer in an immunocompetent animal model, on day 1 RM-1 tumours were established in the prostate of C57BL/6 mice by intraprostatic injection of 5×10^3 RM-1 cells (˜50 μl cell suspension) per mouse. On day 4, these mice received an intraprostatic injection of 1×10^10 VP/tumour of OAdV220, either alone or formulated with 10 μM CS87 (see groups below). Fludarabine was then administered ip at 600 mg/m^2/day to appropriate groups from days 5-10. On day 6, pseudometastases were induced in the lungs by intravenous injection of 2.5×10^5 RM-1 cells (˜50 μl cell suspension) per mouse. Due to the limitations of surgery only 30 intraprostate injections can be performed per day. The experiment was therefore set up on 4 different days, although care was taken not to upset the timing of the experiment. The mice were weighed twice weekly, and sacrificed on day 18. Tissues were harvested for analysis (prostate volume, prostate weights).
Treatment groups were as follows:
Group A OAdV220 alone±fludarabine
Group B Nil treatment (storage buffer)±fludarabine
Group C OAdV220 plus […] CS87±fludarabine
Group D 10 μM CS87 alone±fludarabine

SMILES	potency as a growth inhibitor relative to 6 MP [1] [fold]	responding tumours (tumour volume below 600 mm^3) (PC3 tumours; day 25)	responding tumours (tumour volume below 600 mm^3) (PC3 tumours; day 53)	reduction in mean tumour volume (RM-1 tumours) [%]	decrease in tumour volume [2] [%]	decrease in tumour weight [2] [%]
Nc1nc(F)nc2nc[nH]c12 [2FA, 2-fluoroadenine]	~100	–	–	–	–	–
Nc1nc(F)nc2c1ncn2[C@@H]1O[C@H](CO)[C@@H](O)[C@@H]1O [Fludarabine, fludarabine]	–	6 of 9	0/5	17	12	17
